Entries after “also recorded” stand apart in the source; their conditions may differ. Read-outs that look alike come from different tables or passages of the source.
Tests used:
[1] = Toxicokinetics of PTA and PTB in plasma after intravenous administration of PTA; assay type: in vivo, Jersey heifers; details: for AUC0-∞: PTA in plasma; for k el / clearance / MRT / Vd: iv; for k el: read-out: λz terminal slope (converted)
Procedure: Two heifers (no’s 4848 and 4849) were used in a series of five experiments (Table 1) in a cross-over design including intravenous administration of pure PTA, oral administration of bracken extract and oral administration of dried bracken fern. At least 2 weeks elapsed between each experiment.
Intravenous administration of PTA. In Experiment 1 the dose of purified PTA (0.21 mg kg^-1 body weight (b.w.) / 0.527 μmoles kg^-1) was dissolved in 10 mL of sterile water in a brown glass vial 1 hour before administration and protected from light. The solution was injected through a catheter (Cavafix Certo: 45 cm, 16 G; B. Braun Melsungen AG, Melsungen, Germany) placed in the right jugular vein. Blood samples were collected through another catheter placed in the left jugular vein. Blood samples were collected in heparinized glass tubes before and at predetermined times (10, 20, 30, 45 min and 1, 2, 4, 6, 8, 12, 21 and 24 hours) after PTA administration. The blood was centrifuged for 15 min at 3000 g to separate plasma which then was stored immediately at -18°C until assayed within a week following the method of Aranha et al.. Urine was collected quantitatively in urinary bags (Ratiomed GmBH, München, Germany) through a Foley catheter (Rusch Silasil no 16; Teleflex, Milan, Italy) inserted into the bladder. Samples were collected before and at predetermined times (1, 2, 4, 6, 8, 12, 20 and 24 hours) after PTA administration. Two replicates from each sample were diluted 10 times (0.5 mL: 4.5 mL) with 0.1 M acetic acid, buffered to pH 5 with ammonium acetate and frozen immediately at -18°C until assayed within a week following the method of Aranha et al.. […] In this experiment, PTA was dissolved in sterile water immediately before injection.
Concentrations of PTA in plasma of individual animals were evaluated by non-compartmental analysis. Toxicokinetic variables were calculated using standard kinetic equations. The area under the curve (AUC) and the area under the first moment curve (AUMC) were determined using combined linear and natural logarithm trapezoidal rules. The terminal elimination rate was determined using the last three data points of the curve.
(§1) PTA and PTB were analysed by LC-MS after purification using solid phase extraction (SPE) columns as reported in Aranha et al.. The limit of quantification of PTA and PTB in plasma was 3.0 x 10^−3 μM and 9.30 x 10^−3 μM, respectively. Limit of quantifications in diluted urine was 13 x 10^−3 μM for PTA and 8.28 x 10^−3μM for PTB.

[2] = Urinary recovery of PTA and PTB after intravenous administration of PTA; assay type: in vivo, Jersey heifers; details: twelve hours after iv administration of PTA
Procedure: Intravenous administration of PTA. In Experiment 1 the dose of purified PTA (0.21 mg kg^-1 body weight (b.w.) / 0.527 μmoles kg^-1) was dissolved in 10 mL of sterile water in a brown glass vial 1 hour before administration and protected from light. The solution was injected through a catheter (Cavafix Certo: 45 cm, 16 G; B. Braun Melsungen AG, Melsungen, Germany) placed in the right jugular vein. Blood samples were collected through another catheter placed in the left jugular vein. Blood samples were collected in heparinized glass tubes before and at predetermined times (10, 20, 30, 45 min and 1, 2, 4, 6, 8, 12, 21 and 24 hours) after PTA administration. The blood was centrifuged for 15 min at 3000 g to separate plasma which then was stored immediately at -18°C until assayed within a week following the method of Aranha et al.. Urine was collected quantitatively in urinary bags (Ratiomed GmBH, München, Germany) through a Foley catheter (Rusch Silasil no 16; Teleflex, Milan, Italy) inserted into the bladder. […]
as §1

[3] = Incubation of bracken extract in rumen liquid, in vitro; assay type: in vitro ADME, Jersey cows; details: 37 °C
Procedure: Samples of rumen contents were collected from two rumen fistulated Jersey cows. The cows were fed daily with 6 kg of complete feedingstuff (Danish Ragna Grønmix; Danish Agro, Karise, Denmark) and 2 kg of hay. Barley straw and water were provided ad libitum. The rumen liquid fraction was obtained by passing the digest through a 250 μm nylon filter. From each cow, 150 mL rumen liquid was pre-incubated at 37°C under CO2 atmosphere for 10 min before 5 mL of bracken extract was added in order to obtain an initial PTA concentration of 17 μM. PTA stability was assessed by removal of 2.5 mL sample for PTA determination after incubation for 0, 5, 15, 30, 60 and 120 min at 37 °C. The sample was immediately centrifuged for 3 min at 8,500 g and analysed following the method of Aranha et al.. The pH in rumen liquid was determined at the beginning and termination of the experiment.
Rumen liquid samples were cleaned on HLB cartridges and processed as plasma samples. PTA and PTB calibration curves were prepared in ruminal fluid deactivated by boiling for 5 minutes. The recovery of PTA and PTB in ruminal fluid was 74% (± 0.5%) and 80% (± 1.2%), respectively.

[4] = Presence of glucuronides and sulphates in urine (B-glucuronidase/arylsulfatase incubation); assay type: in vivo, Jersey heifers; details: urine after iv PTA
Procedure: The presence of glucuronides and sulphates was assessed by incubating 1 ml of buffered urine samples in 0.1 M acetic acid buffer (pH 5) with or without addition of 100 μl of B-glucuronidase/arylsulfatase at 37°C for 3 hours on a shaking water bath. Afterwards, an aliquot of 950 μl of each samples were cleaned on the Oasis HLB cartridges and analysed as described for urine samples [22].

## CC1=C[C@]2(O[C@@H]3O[C@H](CO)[C@@H](O)[C@H](O)[C@H]3O)C[C@@H](C)C(=O)[C@@H]2[C@](C)(O)C12CC2 [PTA, (2'R,3a'R,4'S,7a'R)-4'-Hydroxy-2',4',6'-trimethyl-3'-oxo-2',3',3a',4'-tetrahydrospiro[cyclopropane-1,5'-inden]-7a'(1'H)-yl β-D-glucopyranoside]
[1]; iv PTA 0.141 μmoles kg^-1, heifer no 4849, head prints Experiment 2
  AUC0-∞: 420 nM·h
[1]; iv PTA 0.231 μmoles kg^-1, heifer no 4848, head prints Experiment 2
  AUC0-∞: 829 nM·h
[1]; iv PTA 0.527 μmoles kg^-1, heifer no 4848, Experiment 1
  AUC0-∞: 1390 nM·h
[1]; iv PTA 0.527 μmoles kg^-1, heifer no 4849, Experiment 1
  AUC0-∞: 1350 nM·h
[1]; female, Jersey, bovine, plasma, 0.141 μmoles kg^-1, iv PTA 0.141 μmoles kg^-1, heifer no 4849, head prints Experiment 2, plasma
  k el: 6.72e-05 s⁻¹
[1]; female, Jersey, bovine, plasma, 0.141 μmoles kg^-1, iv PTA 0.141 μmoles kg^-1, heifer no 4849, head prints Experiment 2, read-out: Cl (body) body clearance (converted)
  clearance: 0.334 L/h/kg
[1]; female, Jersey, bovine, plasma, 0.141 μmoles kg^-1, iv PTA 0.141 μmoles kg^-1, heifer no 4849, head prints Experiment 2, read-out: MRT mean residence time
  MRT: 2.48 h
[1]; female, Jersey, bovine, plasma, 0.141 μmoles kg^-1, iv PTA 0.141 μmoles kg^-1, heifer no 4849, head prints Experiment 2, read-out: Vss apparent volume of distribution at steady-state
  Vd: 0.83 L/kg
[1]; female, Jersey, bovine, plasma, 0.231 μmoles kg^-1, iv PTA 0.231 μmoles kg^-1, heifer no 4848, head prints Experiment 2, plasma
  k el: 0.000105 s⁻¹
[1]; female, Jersey, bovine, plasma, 0.231 μmoles kg^-1, iv PTA 0.231 μmoles kg^-1, heifer no 4848, head prints Experiment 2, read-out: Cl (body) body clearance (converted)
  clearance: 0.283 L/h/kg
[1]; female, Jersey, bovine, plasma, 0.231 μmoles kg^-1, iv PTA 0.231 μmoles kg^-1, heifer no 4848, head prints Experiment 2, read-out: MRT mean residence time
  MRT: 2.04 h
[1]; female, Jersey, bovine, plasma, 0.231 μmoles kg^-1, iv PTA 0.231 μmoles kg^-1, heifer no 4848, head prints Experiment 2, read-out: Vss apparent volume of distribution at steady-state
  Vd: 0.567 L/kg
[1]; female, Jersey, bovine, plasma, 0.527 μmoles kg^-1, iv PTA 0.527 μmoles kg^-1, heifer no 4848, Experiment 1, plasma
  k el: 4.25e-05 s⁻¹
[1]; female, Jersey, bovine, plasma, 0.527 μmoles kg^-1, iv PTA 0.527 μmoles kg^-1, heifer no 4848, Experiment 1, read-out: Cl (body) body clearance (converted)
  clearance: 0.38 L/h/kg
[1]; female, Jersey, bovine, plasma, 0.527 μmoles kg^-1, iv PTA 0.527 μmoles kg^-1, heifer no 4848, Experiment 1, read-out: MRT mean residence time
  MRT: 2.99 h
[1]; female, Jersey, bovine, plasma, 0.527 μmoles kg^-1, iv PTA 0.527 μmoles kg^-1, heifer no 4848, Experiment 1, read-out: Vss apparent volume of distribution at steady-state
  Vd: 1.14 L/kg
[1]; female, Jersey, bovine, plasma, 0.527 μmoles kg^-1, iv PTA 0.527 μmoles kg^-1, heifer no 4849, Experiment 1, plasma
  k el: 3.19e-05 s⁻¹
[1]; female, Jersey, bovine, plasma, 0.527 μmoles kg^-1, iv PTA 0.527 μmoles kg^-1, heifer no 4849, Experiment 1, read-out: Cl (body) body clearance (converted)
  clearance: 0.389 L/h/kg
[1]; female, Jersey, bovine, plasma, 0.527 μmoles kg^-1, iv PTA 0.527 μmoles kg^-1, heifer no 4849, Experiment 1, read-out: MRT mean residence time
  MRT: 3.84 h
[1]; female, Jersey, bovine, plasma, 0.527 μmoles kg^-1, iv PTA 0.527 μmoles kg^-1, heifer no 4849, Experiment 1, read-out: Vss apparent volume of distribution at steady-state
  Vd: 1.49 L/kg
[1]; female, Jersey, bovine, plasma, 0.21 mg/kg, iv PTA 0.21 mg kg^-1 b.w., average of two heifers, read-out: apparent volume of distribution at steady state (Vss)
  Vd: ~1.3 L/kg
[1]; female, Jersey, bovine, plasma, iv PTA, abstract and discussion, read-out: mean residence time (MRT), as summarised
  MRT: ≤ 4 h
[1]; female, Jersey, bovine, plasma, iv purified PTA, read-out: terminal half-life
  half-life: ≤ 6 h
[1]; female, Jersey, cattle, plasma, 0.21 mg/kg, iv PTA 0.21 mg kg^-1 b.w., average of two heifers, read-out: apparent volume of distribution at steady state (Vss)
  Vd: 1.3 L/kg
[1]; female, Jersey, cattle, plasma, 0.21 mg/kg, iv PTA 0.21 mg kg^-1 b.w., average of two heifers, read-out: average clearance (converted)
  clearance: 0.39 L/h/kg
[1]; female, Jersey, cattle, plasma, 0.21 mg/kg, iv PTA 0.21 mg kg^-1 b.w., average of two heifers, read-out: average of the mean residence time (MRT)
  MRT: 3.4 h
[1]; female, Jersey, cattle, plasma, iv PTA, abstract and discussion, read-out: mean residence time (MRT), as summarised
  MRT: 4 h
[1]; iv PTA 0.21 mg kg^-1 b.w.
  time after which the plasma concentration was below the limit of quantification: 12 h
[2]
  dose recovered in urine as PTA: 30%
[3]; fresh rumen fluid, pH 6.6
  stability of PTA in fresh rumen fluid (in words): detectable in rumen fluid from cow no 1 only immediately after start; also recorded: lost within few minutes
[3]; fresh rumen liquid, 17 μM
  time during which PTA was observed in rumen liquid: ≤ 5 min
[4]
  conjugation with glucuronic acid or sulphate in urine: not conjugated with either glucuronic acid or sulphate
